From patent US20240246932A1 (Merck Sharp & Dohme LLC, priority 2021, published 2024)

Molecular target: human NaV 1.8 channels stably expressed in HEK 293 cells (Homo sapiens (Human), UniProt Q9Y5Y9)
Experiment: Nav1.8 Qube automated patch-clamp assay
Format: cell-based
Settings: human NaV1.8 in HEK 293 cells, whole-cell voltage clamp, room temperature; read-out: IC50 values (nM) for Examples in the Nav1.8 Qube Assay
In short: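 Whole-cell voltage clamp at room temperature on HEK293 cells; from −90 mV, a 10 s 1 Hz train of 20 ms pulses to 10 mV (repolarising to −67 mV) was applied. Peak currents at pulses 1 and 10 gave resting- and inactivated-state inhibition; IC50 fitted by Hill equation. Internal CsF/CsCl buffer.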

Chain of human NaV 1.8 channels stably expressed in HEK 293 cells (Q9Y5Y9 whole entry): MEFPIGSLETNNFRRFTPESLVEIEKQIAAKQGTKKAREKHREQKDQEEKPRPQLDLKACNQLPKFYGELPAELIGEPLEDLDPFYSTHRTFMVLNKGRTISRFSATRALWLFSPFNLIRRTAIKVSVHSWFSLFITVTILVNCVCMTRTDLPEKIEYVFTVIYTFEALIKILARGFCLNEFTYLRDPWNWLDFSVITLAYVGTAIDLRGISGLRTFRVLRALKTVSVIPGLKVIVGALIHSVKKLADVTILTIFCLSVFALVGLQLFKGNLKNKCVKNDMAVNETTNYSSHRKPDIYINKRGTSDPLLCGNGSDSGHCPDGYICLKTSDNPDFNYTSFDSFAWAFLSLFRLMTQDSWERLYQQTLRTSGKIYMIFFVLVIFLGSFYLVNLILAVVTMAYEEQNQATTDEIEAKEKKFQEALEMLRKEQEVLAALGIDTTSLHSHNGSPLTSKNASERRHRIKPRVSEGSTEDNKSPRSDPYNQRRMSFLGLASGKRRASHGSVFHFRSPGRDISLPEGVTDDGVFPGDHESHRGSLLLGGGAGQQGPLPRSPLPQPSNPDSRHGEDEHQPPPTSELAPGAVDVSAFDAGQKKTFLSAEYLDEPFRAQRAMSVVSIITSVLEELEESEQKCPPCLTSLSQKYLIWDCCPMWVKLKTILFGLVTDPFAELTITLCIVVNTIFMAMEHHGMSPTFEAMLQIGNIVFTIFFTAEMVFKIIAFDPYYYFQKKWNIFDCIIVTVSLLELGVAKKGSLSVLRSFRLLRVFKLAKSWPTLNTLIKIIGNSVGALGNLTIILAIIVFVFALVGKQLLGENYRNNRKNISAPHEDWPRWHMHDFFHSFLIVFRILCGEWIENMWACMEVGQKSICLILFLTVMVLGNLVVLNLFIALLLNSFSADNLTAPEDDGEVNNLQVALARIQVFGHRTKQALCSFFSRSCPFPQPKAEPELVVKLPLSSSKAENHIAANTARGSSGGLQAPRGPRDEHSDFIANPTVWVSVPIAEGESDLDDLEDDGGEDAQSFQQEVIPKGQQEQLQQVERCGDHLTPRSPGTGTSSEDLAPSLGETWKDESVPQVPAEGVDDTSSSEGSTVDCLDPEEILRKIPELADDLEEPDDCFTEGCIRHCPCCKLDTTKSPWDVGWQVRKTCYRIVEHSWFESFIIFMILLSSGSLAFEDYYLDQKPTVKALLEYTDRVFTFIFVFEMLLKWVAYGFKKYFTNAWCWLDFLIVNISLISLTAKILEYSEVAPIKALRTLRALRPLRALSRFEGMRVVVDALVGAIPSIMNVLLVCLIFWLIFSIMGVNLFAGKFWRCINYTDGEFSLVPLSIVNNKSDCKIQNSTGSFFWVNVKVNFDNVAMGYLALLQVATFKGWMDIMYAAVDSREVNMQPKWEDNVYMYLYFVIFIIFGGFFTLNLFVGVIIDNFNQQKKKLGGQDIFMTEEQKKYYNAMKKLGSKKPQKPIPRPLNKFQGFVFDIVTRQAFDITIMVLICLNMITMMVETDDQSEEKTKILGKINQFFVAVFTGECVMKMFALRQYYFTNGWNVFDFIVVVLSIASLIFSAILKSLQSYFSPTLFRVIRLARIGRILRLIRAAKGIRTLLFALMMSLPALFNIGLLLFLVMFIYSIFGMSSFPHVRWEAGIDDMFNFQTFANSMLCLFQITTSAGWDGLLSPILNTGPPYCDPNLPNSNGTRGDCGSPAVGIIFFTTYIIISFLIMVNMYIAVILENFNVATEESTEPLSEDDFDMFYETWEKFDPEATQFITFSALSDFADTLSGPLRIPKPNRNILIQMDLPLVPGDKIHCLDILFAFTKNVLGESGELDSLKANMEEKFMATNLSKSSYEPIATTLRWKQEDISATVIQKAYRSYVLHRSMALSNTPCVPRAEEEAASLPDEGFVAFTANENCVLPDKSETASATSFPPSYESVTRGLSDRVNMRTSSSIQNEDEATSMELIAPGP

Row | SMILES | IC50 [nM]
1 | C[C@@H]1C(=O)NCCN1C(=O)NC(c1cnc(C(F)(F)F)nc1)c1ccc(F)c(Cl)c1 (single isomer, unassigned) [Example 69A, (2R)-N-((R or S)-(3-chloro-4-fluorophenyl)(2-(trifluoromethyl)pyrimidin-5-yl)methyl)-2-methyl-3-oxopiperazine-1-carboxamide] | 136
2 | C[C@@H]1C(=O)NCCN1C(=O)NC(c1cnc(OCC(F)(F)F)c(F)c1)c1ccc(F)c(C(F)(F)F)n1 (single isomer, unassigned) [Example 48B] | 209
3 | C[C@@H]1C(=O)NCCN1C(=O)NC(c1ccc(F)c(Cl)c1)c1cc(C(F)(F)F)n[nH]1 (single isomer, unassigned) [Example 85A] | 57.8
4 | C[C@@H]1C(=O)NCCN1C(=O)NC(c1ccc(C(F)(F)F)nc1)c1ccc(F)c(Cl)c1F (single isomer, unassigned) [Example 15B] | 59.9
5 | C[C@@H]1C(=O)NCCN1C(=O)NC(c1ccc(Cl)cc1)c1ccc(C(F)(F)F)nc1 (single isomer, unassigned) [Example 17A, (2R)-N-((R or S)-(4-chlorophenyl)(6-(trifluoromethyl)pyridin-3-yl)methyl)-2-methyl-3-oxopiperazine-1-carboxamide] | 101
6 | C[C@@H]1C(=O)NCCN1C(=O)NC(c1ccc(OC(F)(F)F)c(F)c1)c1cnc(C(F)(F)F)c(Cl)c1 (single isomer, unassigned) [Example 21B, (2R)-N-((S or R)-(5-chloro-6-(trifluoro-methyl)pyridin-3-yl)(3-fluoro-4-(trifluoro-methoxy)phenyl)methyl)-2-methyl-3-oxo-piperazine-1-carboxamide] | 7.71
7 | C[C@@H]1C(=O)NCCN1C(=O)NC(c1ccc(C(F)(F)F)nc1)c1ccc(Cl)c(Cl)c1F (single isomer, unassigned) [Example 29B] | 3.42
8 | C[C@@H]1C(=O)NCCN1C(=O)NC(c1ccc(OC(F)(F)F)c(Cl)c1)c1cnc(C(F)(F)F)c(Cl)c1 (single isomer, unassigned) [Example 22B, (2R)-N-((S or R)-(3-chloro-4-(trifluoro-methoxy)phenyl)(5-chloro-6-(trifluoro-methyl)pyridin-3-yl)methyl)-2-methyl-3-oxopiperazine-1-carboxamide] | 2.88
9 | C[C@@H]1C(=O)NCCN1C(=O)NC(c1ccc(OC2CC2)c(F)c1)c1cnc(C(F)(F)F)c(Cl)c1 (single isomer, unassigned) [Example 25A, (2R)-N-((R or S)-(5-chloro-6-(trifluoro-methyl)pyridin-3-yl)(4-cyclopropoxy-3-fluorophenyl)methyl)-2-methyl-3-oxopiperazine-1-carboxamide] | 3.51
10 | C[C@@H]1C(=O)NCCN1C(=O)NC(c1cnc(C(F)(F)F)nc1)c1ccc(F)c(Cl)c1F (single isomer, unassigned) [Example 30B, (2R)-N-((S or R)-(3-chloro-2,4-difluoro-phenyl)(2-(trifluoro-methyl)pyrimidin-5-yl)methyl)-2-methyl-3-oxopiperazine-1-carboxamide] | 9.18
11 | C[C@@H]1C(=O)NCCN1C(=O)NC(c1ccc(F)c(Cl)c1)c1cc(C(F)(F)F)n[nH]1 (single isomer, unassigned) [Example 85B] | 5.47
12 | C[C@@H]1C(=O)NCCN1C(=O)NC(c1ccc(OC(F)(F)F)cc1)c1cnc(C(F)(F)F)c(Cl)c1 (single isomer, unassigned) [Example 20A, (2R)-N-((R or S)-(5-chloro-6-(trifluoro-methyl)pyridin-3-yl)(4-(trifluoromethoxy)phenyl)methyl)-2-methyl-3-oxopiperazine-1-carboxamide] | 4.01
13 | C[C@@H]1C(=O)NCCN1C(=O)NC(c1ccc(OC(F)(F)F)c(F)c1)c1ccc(C#N)c(C(F)(F)F)n1 (single isomer, unassigned) [Example 61A] | 1.02
14 | C[C@@H]1C(=O)NCCN1C(=O)NC(c1cnc(C(F)(F)F)nc1)c1ccc(F)c(Cl)c1F (single isomer, unassigned) [Example 30A, (2R)-N-((R or S)-(3-chloro-2,4-difluoro-phenyl)(2-(trifluoro-methyl)pyrimidin-5-yl)methyl)-2-methyl-3-oxopiperazine-1-carboxamide] | 506
15 | C[C@@H]1C(=O)NCCN1C(=O)NC(c1ccc(OC(F)F)nc1)c1ccc(F)c(Cl)c1 (single isomer, unassigned) [Example 73B, (2R)-N-((R or S)-(3-chloro-4-fluoro-phenyl)(6-(difluoro-methoxy)pyridin-3-yl)methyl)-2-methyl-3-oxopiperazine-1-carboxamide] | 20.6
16 | C[C@@H]1C(=O)NCCN1C(=O)NC(c1ccc(OCC(F)(F)F)cc1)c1ccc(F)c(C(F)(F)F)n1 (single isomer, unassigned) [Example 57B, (2R)-N-((S or R)-(5-fluoro-6-(trifluoro-methyl)pyridin-2-yl)(4-(2,2,2-trifluoro-ethoxy)phenyl)methyl)-2-methyl-3-oxopiperazine-1-carboxamide] | 125

Row | SMILES | IC50 [nM]
17 | C[C@@H]1C(=O)NCCN1C(=O)NC(c1cnc(OC(F)F)nc1)c1ccc(F)c(Cl)c1F (single isomer, unassigned) [Example 74B, (2R)-N-((S or R)-(3-chloro-2,4-difluorophenyl)(2-(difluoromethoxy)pyrimidin-5-yl)methyl)-2-methyl-3-oxopiperazine-1-carboxamide] | 1320
18 | C[C@@H]1C(=O)NCCN1C(=O)NC(c1ccc(C(F)F)nc1)c1ccc(F)c(Cl)c1F (single isomer, unassigned) [Example 32B, (2R)-N-((s or R)-(3-chloro-2,4-difluoro-phenyl)(6-(difluoro-methyl)pyridin-3-yl)methyl)-2-methyl-3-oxopiperazine-1-carboxamide] | 13
19 | C[C@@H]1C(=O)NCCN1C(=O)NC(c1ccc(Cl)c(C(F)(F)F)n1)c1ccc(F)c(Cl)c1F (single isomer, unassigned) [Example 77A, (2R)-N-((R or S)-(3-chloro-2,4-difluorophenyl)(5-chloro-6-(trifluoromethyl)pyridin-2-yl)methyl)-2-methyl-3-oxopiperazine-1-carboxamide] | 4.59
20 | C[C@@H]1C(=O)NCCN1C(=O)NC(c1ccc(F)c(Cl)c1)c1cnn(CC(F)(F)F)c1 (single isomer, unassigned) [Example 67A] | 890
21 | C[C@@H]1C(=O)NCCN1C(=O)NC(c1ccc(OCC(F)(F)F)nc1)c1cc(F)c(F)c(Cl)c1 (single isomer, unassigned) [Example 7B, (2R)-N-((S or R)-(3-chloro-4,5-difluoro-phenyl)(6-(2,2,2-tri-fluoroethoxy)pyridin-3-yl)methyl)-2-methyl-3-oxo-piperazine-1-carboxamide] | 19.6
22 | C[C@@H]1C(=O)NCCN1C(=O)NC(c1ccc(C#N)c(Cl)c1)c1cnc(C(F)(F)F)c(Cl)c1 (single isomer, unassigned) [Example 24A, (2R)-N-((R or S)-(3-chloro-4-cyano-phenyl)(5-chloro-6-(trifluoromethyl)pyridin-3-yl)methyl)-2-methyl-3-oxopiperazine-1-carboxamide] | 22.3
23 | C[C@@H]1C(=O)NCCN1C(=O)NC(c1ccc(OC2CC2)c(F)c1)c1ccc(F)c(C(F)(F)F)n1 (single isomer, unassigned) [Example 59B, (2R)-N-((S or R)-(4-cyclopropoxy-3-fluorophenyl)(5-fluoro-6-(trifluoromethyl)pyridin-2-yl)methyl)-2-methyl-3-oxopiperazine-1-carboxamide] | 31.8
24 | C[C@@H]1C(=O)NCCN1C(=O)NC(c1ccc(Cl)cc1)c1ccnc(C(F)(F)F)n1 (single isomer, unassigned) [Example 68A] | 34.9
25 | C[C@@H]1C(=O)NCCN1C(=O)NC(c1cnc(C(F)(F)F)nc1)c1ccc(Cl)c(Cl)c1 (single isomer, unassigned) [Example 28B, (2R)-N-((S or R)-(3,4-dichlorophenyl)(2-(trifluoromethyl)pyrimidin-5-yl)methyl)-2-methyl-3-oxopiperazine-1-carboxamide] | 43.7
26 | C[C@@H]1C(=O)NCCN1C(=O)NC(c1cnc(C2CC2)c(Cl)c1)c1ccc(F)c(Cl)c1F (single isomer, unassigned) [Example 27A, (2R)-N-((R or S)-(3-chloro-2,4-difluoro-phenyl)(5-chloro-6-cyclopropylpyridin-3-yl)methyl)-2-methyl-3-oxopiperazine-1-carboxamide] | 52.6
27 | C[C@@H]1C(=O)NCCN1C(=O)NC(c1cnc(C(F)(F)F)s1)c1ccc(F)c(Cl)c1F (single isomer, unassigned) [Example 62B] | 2.45
28 | C[C@@H]1C(=O)NCCN1C(=O)NC(c1ccc(Cl)c(F)c1)c1ccc(F)c(C(F)(F)F)n1 (single isomer, unassigned) [Example 53A, (2R)-N-((R or S)-(4-chloro-3-fluoro-phenyl)(5-fluoro-6-(trifluoromethyl)pyridin-2-yl)methyl)-2-methyl-3-oxopiperazine-1-carboxamide] | 68.9
29 | C[C@@H]1C(=O)NCCN1C(=O)NC(c1ccc(F)c(Cl)c1)c1ccc2nc(C(F)(F)F)cn2c1 (single isomer, unassigned) [Example 11B] | 196
30 | O=C1CN(C(=O)NC(c2cnc(C(F)(F)F)c(Cl)c2)c2ccc(F)c(Cl)c2F)CCN1 (single isomer, unassigned) [Example 36, N-((R or S)-(3-chloro-2,4-difluorophenyl)(5-chloro-6-(trifluoro-methyl)pyridin-3-yl)methyl)-3-oxopiperazine-1-carboxamide] | 6.97
31 | O=C1CN(C(=O)NC(c2ccc(OCC(F)(F)F)nc2)c2ccc(F)c(Cl)c2F)CCN1 (single isomer, unassigned) [Example 8B, N-((S or R)-(3-chloro-2,4-difluorophenyl)(6-(2,2,2-trifluoroethoxy)pyridin-3-yl)methyl)-3-oxopiperazine-1-carboxamide] | 136
